# From PubChem BioAssay (NCI)
# Values joined by “and” are separate entries in the source; they are usually repeats but may differ in a detail not shown here. Equal values may be shown once.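 Five compound concentrations were applied to cells in 96-well plates for 48 hours; endpoints were derived by simple linear interpolation of the resulting dose-response curve. GI50 is the concentration that inhibits growth by half. TGI marks complete inhibition of growth.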
# Assays:
# Experiment in all cases: NCI anticancer screen, dose series, 48 h
# [1] = tested on: A549 NSCLC
# [2] = tested on: IGROV1 ovarian
# [3] = tested on: MDA-MB-231 breast
# [4] = tested on: NCI-H226 lung
# [5] = tested on: NCI-H23 lung
# [6] = tested on: OVCAR-4 ovarian
# [7] = tested on: OVCAR-8 ovarian
# [8] = tested on: UACC-62 melanoma
SMILES,GI50 [1],TGI [1],GI50 [2] [µM],TGI [2] [µM],GI50 [3],TGI [3],GI50 [4] [µM],TGI [4] [µM],GI50 [5] [µM],TGI [5],GI50 [6] [µM],TGI [6],GI50 [7],TGI [7],GI50 [8],TGI [8]
COc1cc(-c2nn(-c3cccc(NC(=O)CCN4CCN(c5ccccc5)CC4)c3)cc2-c2ccncc2)ccc1Cl,4.91 µM,> 100 µM,4.12,> 100,2.28 µM,7.91 µM,4.13,> 100,3.09,> 100 µM,3.03,> 100 µM,4.5 µM,> 100 µM,2.49 µM,8.01 µM
O=CN1N=C(c2cccc(Nc3ccnc4cc(Cl)ccc34)c2)CC1c1ccc(Cl)cc1 (configuration not stated),0.941 µM,> 100 µM,0.757,> 100,2.12 µM,> 100 µM,> 100,> 100,2.48,> 100 µM,4.13,> 100 µM,3.8 µM,> 100 µM,1.63 µM,> 100 µM
COCC(C(=O)OC1C/C=C/C=C/C(=O)OC(C(C)C(O)C(C)CCC(OC(=O)C(C)N(C)C)C(C)C(OC(C)=O)C(C)/C=C/N(C)C=O)C/C=C/C(OC)CC(C)C/C=C(\C)C(OC)CCC(C)C(O)C1C)N(C)C (configuration not stated),< 0.0001 µM,0.156 µM,< 0.0001,0.0144,< 0.0001 µM,0.00136 µM,,,< 0.0001,> 0.666 µM,0.00537,> 0.281 µM,< 0.0001 µM,,< 0.0001 µM,0.000461 µM
CC(=O)OCC1OC(n2c3c(cc(C#N)c2=S)CCCC3)C(OC(C)=O)C(OC(C)=O)C1OC(C)=O (configuration not stated),,> 100 µM,,> 100,,> 100 µM,,> 100,,> 100 µM,,> 100 µM,,> 100 µM,> 100 µM and 26.5 µM,> 100 µM
CCOc1ccc2cc(-c3nn(CC4CCNCC4)c4ncnc(N)c34)ccc2c1,20.3 µM,46.2 µM,11.7,27.8,11.1 µM,25.5 µM,10,33.4,13.4,31.9 µM,10.9,33.4 µM,,,16.9 µM,32.1 µM
N#Cc1cc(S(=O)(=O)Nc2nc3cc(Cl)ccc3o2)c(SCc2ccccc2)cc1Cl,14.2 µM,27.2 µM,15,28.3,10.7 µM,22.5 µM,17.8,43.4,15.6,28.9 µM,15.9,35.1 µM,14.2 µM,27.3 µM,13.2 µM,25.9 µM
CCOC(=O)c1c(CN2CCN(C)CC2)nc2ccc(Cl)cc2c1-c1ccccc1,14.1 µM,28.5 µM,7.14,19.9,7.16 µM,21.2 µM,15.6,34.9,14.5,30.1 µM,4.98,17.4 µM,15.2 µM,29.6 µM,2.35 µM,7.76 µM
CCOC(=O)/C(=C\c1ccc2ccccc2c1)P(=O)(OCC)OCC,3.08 µM,11.6 µM,3,8.94,3.57 µM,13.4 µM,2.39,5.88,1.95,4.78 µM,4.16,20.1 µM,3.26 µM,13.2 µM,2.33 µM,8.53 µM
COc1cc2c3cc1Oc1c(OC)c(OC)cc4c1C(Cc1ccc(O)c(c1)Oc1ccc(cc1)CC3N(C)CC2)N(C)CC4 (configuration not stated),14.4 µM,81.7 µM and 48.8 µM,27.7,> 100,5.21 µM,> 100 µM and 21.9 µM,34.4,> 100,,31.1 µM and > 100 µM,15.3,> 100 µM and 50.7 µM,21.4 µM,> 100 µM,,> 100 µM and 29.2 µM
COc1cc(N(C)C)c(OC)cc1C=C1C=CC=C1,,> 100 µM,,> 100,,> 100 µM,,> 100,,> 100 µM,,,,> 100 µM,,> 100 µM
CCCCCCCCCCCCCCCC[n+]1ccccc1,0.468 µM and 1.21 µM,1.86 µM and 2.95 µM,0.384,1.9,0.44 µM and 0.805 µM,1.74 µM and 2.7 µM,,,0.295,1.43 µM,0.57,3.29 µM,0.331 µM and 0.704 µM,1.28 µM and 3.07 µM,0.565 µM,2.15 µM
COc1ccc(C)cc1NC(=S)C#N,,> 100 µM,,,,> 100 µM,,> 100,,> 100 µM,,,,> 100 µM,,> 100 µM
Cc1cc(NN=C(c2ccc(O)cc2)c2ccc(O)cc2)c([N+](=O)[O-])cc1[N+](=O)[O-],2.47 µM,> 100 µM,,,4.7 µM,20.7 µM,7.76,40.1,3.8,47.3 µM,6.38,> 100 µM,4.08 µM,> 100 µM,4.77 µM,19.3 µM
COc1cc(/C=C2\SC(N3CCCCC3)=NC2=O)ccc1OCCCCCCOc1ccc(/C=C2\SC(N3CCCCC3)=NC2=O)cc1OC,11.8 µM,30.9 µM,11.1,43,2.13 µM,21 µM,5.18,22,12.6,40.9 µM,,,4.95 µM,31.1 µM,16.1 µM,67.1 µM
C=C1C[C@@H]2O[C@H]3[C@H]4[C@@H](CC[C@@](C)(OC(=O)CCC)[C@H]42)[C@@H](C)C(=O)O[C@@]3(C)CC[C@H]1OO,18.5 µM,34.4 µM,17.8,35.6,17.9 µM,33.2 µM,17,32.2,16.9,30.6 µM,19.5,40.2 µM,22.6 µM,51.6 µM,,
COc1ccc(-c2c(N)noc2-c2cc(OC)c3c(c2)OCCO3)cc1,0.0101 µM,> 41.6 µM,0.0177,> 73.3,0.0851 µM,> 43.3 µM,,,< 0.014,,0.0847,> 100 µM,0.0212 µM,> 33.2 µM,< 0.01 µM,28.2 µM
